{
  "source": "patent US10813926B2",
  "about": "“Morphinan compounds” (Concert Pharmaceuticals, Inc., priority 2008, dated 2020)",
  "key": {"[1]": {"molecular_target": "T1, Human CYP2D6 SUPERSOMES (Homo sapiens, UniProt P10635)", "T1 construct": "purchased GenTest (Woburn, Mass., USA)", "T1 sequence (P10635 whole entry)": "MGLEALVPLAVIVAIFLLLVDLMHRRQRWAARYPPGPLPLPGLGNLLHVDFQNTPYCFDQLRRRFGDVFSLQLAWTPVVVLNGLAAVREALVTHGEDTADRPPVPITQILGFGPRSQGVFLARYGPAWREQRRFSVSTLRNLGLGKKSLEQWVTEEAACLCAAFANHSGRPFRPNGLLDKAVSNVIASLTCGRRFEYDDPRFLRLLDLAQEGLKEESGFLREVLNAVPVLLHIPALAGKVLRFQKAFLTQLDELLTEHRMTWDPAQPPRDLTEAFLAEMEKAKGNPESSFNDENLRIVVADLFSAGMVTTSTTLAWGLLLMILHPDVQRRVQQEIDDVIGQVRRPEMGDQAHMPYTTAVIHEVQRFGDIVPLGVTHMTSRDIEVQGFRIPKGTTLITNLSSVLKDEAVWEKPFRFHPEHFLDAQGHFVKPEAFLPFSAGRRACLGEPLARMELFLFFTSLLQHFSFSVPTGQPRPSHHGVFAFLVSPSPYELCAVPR", "test": "Metabolic stability in CYP2D6 SUPERSOMES", "type": "in vitro ADME", "conditions": "50 pmol/mL CYP2D6 SUPERSOMES, 1 μM test compound, 2 mM NADPH, 37° C., 0-30 minutes, triplicate", "description": "(§1) Human CYP2D6 SUPERSOMES™ were purchased from GenTest (Woburn, Mass., USA). 7.5 mM stock solutions of test compounds (Compounds 100, 102, 104, 106, dextromethorphan, a deuterated analog of dextromethorphan wherein each methyl group was replaced with CD3 (“d6-dextromethorphan”, chemical name (+)-3-d3-methoxy-17-d3-methyl-(9α,13α,14α)-morphinan, also referred to as Compound 101 in U.S. Ser. No. 12/112,936, and as “Test Compound” in FIG. 1 and Table 2 below), the ethyl ether analog of dextromethorphan (“dextroethorphan”) or the isopropyl ether analog of dextromethorphan (“dextroisoproporphan”)) were prepared in DMSO. The 7.5 mM stock solutions were diluted to 50 μM in acetonitrile (ACN). The 1000 pmol/mL CYP2D6 supersomes were diluted to 62.5 pmol/mL in 0.1 M potassium phosphate buffer, pH 7.4, containing 3 mM MgCl2. The diluted SUPERSOMES™ were added to wells of a 96-well deep-well polypropylene plate in triplicate. 10 μL of the 50 μM test compound was added to the supersomes and the mixture was pre-warmed for 10 minutes. Reactions were initiated by addition of pre-warmed NADPH solution. The final reaction volume was 0.5 mL and contained 50 pmol/mL CYP2D6 SUPERSOMES™, 1 μM test compound, and 2 mM NADPH in 0.1 M potassium phosphate buffer, pH 7.4, and 3 mM MgCl2. The reaction mixtures were incubated at 37° C. and 50 μL aliquots were removed at 0, 5, 10, 20, and 30 minutes and added to shallow-well 96-well plates which contained 50 μL of ice-cold ACN with internal standard to stop the reactions. The plates were stored at 4° C. for 20 minutes after which 100 μL of water was added to the wells of the plate before centrifugation to pellet precipitated proteins. Supernatants were transferred to another 96-well plate and analyzed for amounts of parent remaining by LC-MS/MS using an Applied Bio-systems API 4000 mass spectrometer.\n(§2) The in vitro half-life (t1/2) for each of the test compounds was calculated from the slopes of the linear regression of % parent remaining (ln) vs incubation time relationship: in vitro t1/2=0.693/k, where k=−[slope of linear regression of % parent remaining(ln) vs incubation time]. Data analysis was performed using Microsoft Excel Software."}, "[2]": {"test": "Metabolic stability using human liver microsomes", "type": "in vitro ADME", "conditions": "for t1/2 ± SD, calculated half-life in human liver microsomes / half-life at 1 μM: 1.0 mg/mL human liver microsomes, 1 μM test compound, 2 mM NADPH, 37° C., triplicate; for half-life at 1 μM: pH 7.4, read-out: t1/2 ± SD, calculated half-life in human liver microsomes", "description": "Human liver microsomes (20 mg/mL) were obtained from Xenotech, LLC (Lenexa, Kans.). β-nicotinamide adenine dinucleotide phosphate, reduced form (NADPH), magnesium chloride (MgCl2), and dimethyl sulfoxide (DMSO) were purchased from Sigma-Aldrich.\n7.5 mM stock solutions of test compounds were prepared in DMSO. The 7.5 mM stock solutions were diluted to 50 μM in acetonitrile (ACN). The 20 mg/mL human liver microsomes were diluted to 1.25 mg/mL (1 mg/mL final) in 0.1 M potassium phosphate buffer, pH 7.4, containing 3 mM MgCl2. The diluted microsomes (375 μL) were added to wells of a 96-well polypropylene plate in triplicate. 10 μL of the 50 μM test compound was added to the microsomes and the mixture was pre-warmed for 10 minutes. Reactions were initiated by addition of 125 μL of pre-warmed NADPH solution. The final reaction volume was 0.5 mL and contained 1.0 mg/mL human liver microsomes, 1 μM test compound, and 2 mM NADPH in 0.1 M potassium phosphate buffer, pH 7.4, and 3 mM MgCl2. The reaction mixtures were incubated at 37° C., and 50 μL aliquots were removed at 0, 5, 10, 20, and 30 minutes and added to shallow 96-well plates which contained 50 μL of ice-cold ACN with internal standard to stop the reactions. The plates were stored at 4° C. for 20 minutes after which 100 μL of water was added to the wells of the plate before centrifugation to pellet precipitated proteins. Supernatants were transferred to another 96-well plate and analyzed for amounts of parent remaining by LC-MS/MS using an Applied Bio-systems API 4000 mass spectrometer.\n7-ethoxy coumarin was used as a positive control.\nThe in vitro t1/2s for test compounds were calculated from the slopes of the linear regression of % parent remaining (ln) vs incubation time relationship:\nin vitro t1/2=0.693/k, where k=−[slope of linear regression of % parent remaining(ln) vs incubation time]\nData Analysis was Performed Using Microsoft Excel Software."}, "[3]": {"molecular_target": "T2, CYP2D6 (Homo sapiens, UniProt P10635)", "T2 construct": "purchased GenTest (Woburn, Mass., USA)", "T2 sequence (P10635 whole entry)": "as above", "test": "Metabolic stability in CYP2D6 SUPERSOMES", "type": "in vitro ADME", "conditions": "human, recombinant human CYP2D6 SUPERSOMES, pH 7.4; 50 pmol/mL CYP2D6 SUPERSOMES, 1 μM test compound, 2 mM NADPH, 37° C., 0-30 minutes, triplicate; read-out: t1/2 ± SD, calculated half-life in SUPERSOMES", "description": "as §1, §2"}, "[4]": {"conditions": "healthy human males; cited from earlier work"}, "[5]": {"conditions": "Table 3, vs dextroethorphan or dextroisoproporphan"}},
  "note": "Counter-ions that a name gives are not always drawn.",
  "data": [
    {"smiles": "CCOc1ccc2c(c1)[C@@]13CCCC[C@H]1[C@@H](C2)N(C)CC3", "note": "[Dextroethorphan, (+)-3-ethoxy-17-methylmorphinan, reference compound]", "values": [
      {"measurement": "t1/2 ± SD, calculated half-life in SUPERSOMES", "setting": "[1]", "value": "10.3 ± 2.1", "unit": "min"},
      {"measurement": "t1/2 ± SD, calculated half-life in human liver microsomes", "setting": "[2]; Table 3", "value": "28.3 ± 0.6", "unit": "min"}
    ]},
    {"smiles": "CC(C)Oc1ccc2c(c1)[C@@]13CCCC[C@H]1[C@@H](C2)N(C)CC3", "note": "[Dextroisoproporphan, (+)-3-(2-propoxy)-17-methyl-morphinan, reference compound]", "values": [
      {"measurement": "half-life at 1 μM", "setting": "[3]", "value": "21.7 ± 1.6", "unit": "min"},
      {"measurement": "half-life at 1 μM", "setting": "[2]; Table 3", "value": "36.1 ± 1.6", "unit": "min"}
    ]},
    {"smiles": "[2H]C([2H])([2H])N1CC[C@@]23CCCC[C@@H]2[C@@H]1Cc1ccc(OC([2H])([2H])C([2H])([2H])[2H])cc13", "note": "[Compound 100, (+)-3-(Ethoxy-d5)-17-(methyl-d3)-(9α,13α,14α)-morphinan hydrochloride]", "values": [
      {"measurement": "t1/2 ± SD, calculated half-life in SUPERSOMES", "setting": "[1]", "value": "51.3 ± 3.7", "unit": "min"},
      {"measurement": "t1/2 ± SD, calculated half-life in human liver microsomes", "setting": "[2]; Table 3", "value": "59.2 ± 1.7", "unit": "min"},
      {"measurement": "Change over non-deuterated compound (half-life)", "setting": "[2]; [5]", "value": 109, "unit": "%"}
    ]},
    {"smiles": "[2H]C([2H])([2H])c1ccc2c(c1)[C@]13CCCC[C@@H]1[C@H](C2)N(C([2H])([2H])[2H])CC3", "note": "[Compound 110, (+)-3-(Methyl-d3)-17-(methyl-d3)-(9α,13α,14α)-morphinan]", "values": [
      {"measurement": "Change over non-deuterated compound (half-life)", "setting": "[2]; Table 4, vs dimemorfan", "value": 37, "unit": "%"}
    ]},
    {"smiles": "[2H]C([2H])([2H])C([2H])(Oc1ccc2c(c1)[C@]13CCCC[C@@H]1[C@H](C2)N(C)CC3)C([2H])([2H])[2H]", "note": "[Compound 106, (+)-3-(Isopropoxy-d7)-17-methyl-(9α,13α,14α)-morphinan]", "values": [
      {"measurement": "half-life at 1 μM", "setting": "[3]", "value": "36 ± 2.8", "unit": "min"},
      {"measurement": "Change over non-deuterated compound (half-life)", "setting": "[2]; [5]", "value": 91, "unit": "%"},
      {"measurement": "half-life at 1 μM", "setting": "[2]; Table 3", "value": "68.8 ± 0.9", "unit": "min"}
    ]},
    {"smiles": "[2H]C([2H])([2H])C([2H])([2H])Oc1ccc2c(c1)[C@]13CCCC[C@@H]1[C@H](C2)N(C)CC3", "note": "[Compound 104, (+)-3-(Ethoxy-d5)-17-methyl-(9α,13α,14α)-morphinan hydrochloride]", "values": [
      {"measurement": "t1/2 ± SD, calculated half-life in SUPERSOMES", "setting": "[1]", "value": "49.1 ± 4.1", "unit": "min"},
      {"measurement": "t1/2 ± SD, calculated half-life in human liver microsomes", "setting": "[2]; Table 3", "value": "59.1 ± 2.2", "unit": "min"},
      {"measurement": "Change over non-deuterated compound (half-life)", "setting": "[2]; [5]", "value": 109, "unit": "%"}
    ]},
    {"smiles": "COc1ccc2c(c1)[C@]13CCCC[C@@H]1[C@H](C2)N(C)CC3", "note": "[Dextromethorphan, (+)-3-methoxy-17-methyl-(9α,13α,14α)-morphinan, reference compound]", "values": [
      {"measurement": "t1/2 ± SD, calculated half-life in SUPERSOMES", "setting": "[1]", "value": "1.7 ± 0.3", "unit": "min"}
    ]},
    {"smiles": "[2H]C([2H])([2H])c1ccc2c(c1)[C@]13CCCC[C@@H]1[C@H](C2)N(C)CC3", "note": "[Compound 108, (+)-3-(Methyl-d3)-17-methyl-(9α,13α,14α)-morphinan]", "values": [
      {"measurement": "Change over non-deuterated compound (half-life)", "setting": "[2]; Table 4, vs dimemorfan", "value": 21, "unit": "%"}
    ]},
    {"smiles": "[2H]C([2H])([2H])N1CC[C@@]23CCCC[C@@H]2[C@@H]1Cc1ccc(OC([2H])(C([2H])([2H])[2H])C([2H])([2H])[2H])cc13", "note": "[Compound 102, (+)-3-(Isopropoxy-d7)-17-(methyl-d3)-(9α,13α,14α)-morphinan]", "values": [
      {"measurement": "half-life at 1 μM", "setting": "[3]", "value": "39 ± 1.9", "unit": "min"},
      {"measurement": "Change over non-deuterated compound (half-life)", "setting": "[2]; [5]", "value": 69, "unit": "%"},
      {"measurement": "half-life at 1 μM", "setting": "[2]; Table 3", "value": "61 ± 0.4", "unit": "min"}
    ]},
    {"smiles": "Cc1ccc2c(c1)[C@]13CCCC[C@@H]1[C@H](C2)N(C)CC3", "note": "[Dimemorfan, (+)-(9α,13α,14α)-3,17-dimethylmorphinan]", "values": [
      {"measurement": "fraction of a dose metabolized", "setting": "[4]", "value": "Greater than 98%"}
    ]},
    {"smiles": "[2H]C([2H])([2H])Oc1ccc2c(c1)[C@]13CCCC[C@@H]1[C@H](C2)N(C([2H])([2H])[2H])CC3", "note": "[Test Compound, (+)-3-d3-methoxy-17-d3-methyl-(9α,13α,14α)-morphinan, reference compound]", "values": [
      {"measurement": "t1/2 ± SD, calculated half-life in SUPERSOMES", "setting": "[1]", "value": "5.6 ± 1.5", "unit": "min"}
    ]}
  ]
}
